Values of other authors, collected in patent US20090297596A1, “Nanoparticulate and Controlled Release Compositions Comprising a Platelet Aggregation Inhibitor” (ELAN PHARMA INTERNATIONAL LIMITED, priority 2005, published 2009).
Read-outs that look alike come from different tables or passages of the source.

How the values were obtained:
[1] = test system: phosphodiesterase III

Question: Which Solubility (absolute ether) does the source give for `O=C1CCc2cc(OCCCCc3nnnn3C3CCCCC3)ccc2N1` [Cilostazol, 6-[4-(1-cyclohexyl-1H-tetrazol-5-yl)butoxy]-3,4-dihydro-2(1H)-quinolinone] here?
Answer: practically insoluble

Question: And the Solubility (benzyl alcohol)?
Answer: soluble

Question: And the Solubility (chloroform)?
Answer: freely soluble

Question: What about the Solubility (dimethylformamide) of the same molecule?
Answer: soluble

Question: And the Solubility (ethanol)?
Answer: slightly soluble

Question: And the Solubility (methanol)?
Answer: slightly soluble

Question: And the Solubility (mixture of chloroform and methanol (1:1))?
Answer: soluble

Question: What about the Solubility (water) of the same molecule?
Answer: practically insoluble

Question: What about the “Inhibition of phosphodiesterase III” value [1] of the same molecule?
Answer: inhibits
